Measurements taken from patent US11028137B2, “Mutant islet amyloid polypeptides with improved solubility and methods for using the same” (priority 2017, dated 2021).
Where a SMILES comes first, the peptide text is derived from it.

Assays:
[1] = pH 7.4
Experimental: Dry peptides were dissolved into 10 mM PBS buffer at pH 7.4 at different initial concentrations, and were incubated for 7 days at 25° C. without stirring. Each sample was then centrifuged using a Beckman Coulter Microfuge 22R Centrifuge at 24° C. for 20 min. The relative centrifugal force used was 1.75×10^4 g. Solubility of each sample was approximated by measuring the absorbance of the corresponding supernatant at 280 nm measured using a Beckman Coulter DU 730 UV/Vis Spectrophotometer.
Each peptide tested was incubated in 10 mM PBS buffer at pH 7.4 for 7 days at three different concentrations (100 μM, 500 μM and 1 mM) and the solution was then centrifuged. The apparent solubility was represented by the absorbance of the supernatant of each sample measured at 280 nm. The extinction coefficients of all polypeptides are very similar at 280 nm since they all contain the same aromatic residues and each contains a disulfide bond. […] A peptide which is soluble at 1 mM and above will show a linear dependence of absorbance on initial concentration. A peptide which is less soluble will deviate from linearity. The peptides were centrifuged after 7 days and their apparent solubility measured by measuring the absorbance at 280 nm of the supernatant of each solution. The apparent concentration refers to the concentration which would be obtained if all of the peptide dissolved. The absorbance of the supernatant is directly proportion to the amount of peptide in solution.

[2] = Thioflavin-T fluorescence assay of amyloid formation kinetics; assay type: physicochemical; conditions: 16 μM peptide, 10 mM PBS pH 7.4, 25° C., no stirring; 1 week and 6 week incubations
Experimental: Sample Preparation. Each peptide was dissolved into 100% hexafluoroisoproponal (HFIP) to make a 0.5 mM stock solution. Stock solutions were filtered using […] Acrodisc syringe filter with a GHP membrane and the required amount of peptide was lyophilized overnight to remove HFIP. Dry peptide was dissolved into the appropriate buffer for the fluorescence assays. Fluorescence Assays. Thioflavin-T binding assays, conducted without HFIP or stirring at 25° C., were utilized to monitor amyloid formation kinetics. Fluorescence measurements were performed using a Spectramax Gemini EM plate reader. Corning 96-well non-binding surface black plates with lids were used and were sealed with polyethylene sealing tape. Samples were prepared by dissolving dry peptide into 10 mM PBS buffer (pH 7.4) and 32 μM thioflavin-T solution immediately before the measurement. Thioflavin-T fluorescence was measured with 450 nm excitation and emission at 485 nm was monitored. The final concentrations were 16 μM peptides. After creating the mutant-hIAPP polypeptides of the present disclosure, applicants tested the propensity of the different analogs to form amyloid at pH 7.4 using thioflavin-T fluorescence assays (FIGS. 2A-D) and TEM (FIGS. 3A-E). […] Amyloid formation follows a sigmoidal time course consisting of a lag phase in which few, if any, fibrils are formed, followed by a growth phase and a saturation phase in which amyloid fibrils are in equilibrium with soluble peptide.

[3] = target: T1, human amylin receptor (hAMY1(a)) (Homo sapiens, UniProt O60894+P30988); assay: cAMP production (LANCE cAMP assay) in transfected Cos-7 cells; assay type: cell-based; conditions: cAMP production, Cos-7 cells expressing hAMY1(a); mean ± spread; read-out: Human Amylin1(a) receptor binding data pEC50 (converted)
T1 construct: expressed in transfected cells; host or cells: Cos-7 cells, transient transfection with PEI, pcDNA3.1 vectors
T1 sequence (O60894 27-148 partner, one chain of several): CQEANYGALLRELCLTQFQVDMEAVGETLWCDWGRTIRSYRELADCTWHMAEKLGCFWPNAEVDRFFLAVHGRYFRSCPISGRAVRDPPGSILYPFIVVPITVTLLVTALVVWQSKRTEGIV
Experimental: (§1) Cell Culture and Transfection. Cos-7 cells were cultured and transfected for receptor activity assays as previously described in Bailey, R. J., and Hay, D. L. Peptides (2006) 27, pp. 1367-1375, the entire contents of which is incorporated herein by reference. Specifically, cells were cultured in Dulbucco's modified eagle medium (DMEM) with 8% heat-inactivated fetal bovine serum (FBS) and kept in a 37° C. humidified 95% air/5% CO2 incubator. Cells were plated at a density of 18,000-20,000 cells/well (depending on cell passage) in 96-well culture plate and returned to the incubator for approximately 18-24 hours. Transient transfections were carried out using polyethyleneimine (PEI) as described previously and maintained at 37° C. in a humidified 95% air/5% CO2 incubator for 36-48 hours. All DNA constructs used in this these were in pcDNA3.1 vectors.
(§2) cAMP Assay: Measurement of intracellular cAMP was achieved using a time-resolved fluorescent resonance energy transfer assay (LANCE cAMP assay, PerkinElmer), similar to the previously described Alphascreen assay as described in Gingell, J. J., et al. Peptides (2010) 31, pp. 1400-1404, with the following changes. Following stimulation with peptide agonist, cAMP assay media from the wells was thoroughly aspirated and 50 μl of ice-cold absolute ethanol added to each well. Plates were then placed in a −30° C. freezer for 10 minutes or overnight prior to assay, then removed and allowed to air dry in a fume hood for 1-2 hours. After ethanol evaporated from the plates, 50 μl of LANCE detection buffer (lysis buffer, 0.35% Triton X-100, 50 mM HEPES and 10 mM calcium chloride in ddH2O, pH 7.4) was added per well and left on a plate shaker for 10-15 minutes at room temperature. Meanwhile, a cAMP standard curve was generated using LANCE detection buffer and a serially diluted cAMP standard (50 μM) ranging from 1 μM to 10 pM. The serially diluted cAMP standards (5 μl) and cell lysates (5 μl) were transferred into 384-well opti-plates and sealed with a Sealplate®-A-384-well microplate adhesive film and briefly centrifuged (10 seconds, 500 rpm, 23° C.). A 1:200 dilution of LANCE assay Alexa Fluor® 647 anti-cAMP antibody was prepared in detection buffer and 5 μl added to each well. Plates were sealed and briefly centrifuged again (10 seconds, 500 rpm, 23° C.) and left to incubate, sealed for 30 minutes at room temperature. During this incubation, detection mix was made up consisting of detection buffer, Europium-W8044 labelled streptavidin (1:4500) and biotin-cAMP (1:1500). After 30 minutes incubation, 10 μl of detection mix was added to each well, plates were centrifuged (30 seconds, 500 rpm, 23° C.), sealed and left to incubate for 1 hour at room temperature. Plates were read after an overnight incubation on an Envision plate reader. A standard curve was included in each experiment to ensure accurate quantification of cAMP.
(§3) Data Analysis for Receptor Assays: Data were derived from independent experiments for statistical analysis and all experiments were performed and replicated. Quantification of cAMP was obtained from a standard curve included in each experiment and plotted using the software GraphPad Prism 6.0 (GraphPad Software Inc, San Diego, Calif., USA) with a non-linear regression 3-parameter logistic equation with a Hill Slope of 1 to determine the pEC50. The pEC50 values from the fits were combined from different experimental days and statistically tested for difference from the WT peptide using the Student's t-test with statistical significance defined as * p<0.05, ** p<0.01, *** p<0.001. Due to variability in amount of cAMP produced between experimental days, data were normalized to the control peptide for each experiment to obtain Emax values. For each analogue, data were normalized to the maximum (Emax) and minimum (Emin) responses of h-amylin. […]

[4] = target: T2, human calcitonin receptor (hCT(a)) (Homo sapiens, UniProt P30988); assay: as above; assay type: cell-based; conditions: cAMP production, Cos-7 cells expressing hCT(a); mean ± spread; read-out: Human calcitonin receptor binding data pEC50 (converted)
T2 construct: expressed in transfected cells; host or cells: Cos-7 cells, transient transfection with PEI, pcDNA3.1 vectors
T2 sequence (P30988 25-474): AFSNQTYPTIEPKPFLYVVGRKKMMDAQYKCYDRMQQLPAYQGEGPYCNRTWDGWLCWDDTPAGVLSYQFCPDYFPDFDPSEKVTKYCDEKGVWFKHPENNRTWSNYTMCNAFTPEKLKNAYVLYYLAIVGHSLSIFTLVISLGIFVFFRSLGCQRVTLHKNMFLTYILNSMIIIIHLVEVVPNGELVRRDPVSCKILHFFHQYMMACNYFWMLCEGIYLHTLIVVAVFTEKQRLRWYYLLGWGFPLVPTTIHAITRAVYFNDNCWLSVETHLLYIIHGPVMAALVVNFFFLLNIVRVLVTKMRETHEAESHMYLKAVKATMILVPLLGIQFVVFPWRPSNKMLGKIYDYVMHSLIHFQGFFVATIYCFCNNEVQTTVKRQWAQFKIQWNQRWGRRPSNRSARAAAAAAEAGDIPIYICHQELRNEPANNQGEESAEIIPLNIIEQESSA
Experimental: as §1, §2, §3

[5] = Transmission electron microscopy (TEM) of amyloid aggregates; assay type: physicochemical; conditions: after 7 days of incubation, end of kinetic experiment
Experimental: Transmission Electron Microscopy (TEM). TEM images were recorded using an FEI Bio TwinG^2 Transmission Electron Microscope at the central microscopy center at Stony Brook University. 15 μL aliquots of the samples used for fluorescence assays were removed at the end of each kinetic experiment, blotted on a carbon formvar-coated 300-mesh copper grid for 1 min and then negatively stained with saturated uranyl acetate for 1 min. Images were taken at a 68,000× magnification and 100 nm under focus. Mutant-hIAPP polypeptides of the present disclosure were further analyzed using TEM. […] In contrast, no amyloid fibrils were formed after a 1 week (FIGS. 3B-E, left) or 6 week (FIGS. 3B-E, right) culture with the any of the mutant-hIAPP analogs tested.

[6] = pH 7
Experimental: 100 μL each solution was obtained immediately following dissolution with Novolin-N® and was centrifuged using a Beckman Coulter Microfuge (22R Centrifuge) at 24° C. for 20 minutes. The relative centrifugal force used was 1.75×104 g. Aliquots of each sample were immediately frozen and lyophilized. The remaining portion of each sample was not centrifuged and were incubated at 25° C. without stirring. Samples were collected again following the same procedures after 1 day, 7 days and 30 days. Dry samples were redissolved in 4:1 HPLC buffer mix (4A:1B, below) and immediately injected for liquid chromatography-mass spectroscopy (LC-MS) measurements. The HPLC buffers were (A) H2O (0.1% acetic acid and 0.02% TFA) and (B) CH3CN (0.1% acetic acid and 0.02% TFA). Solubility of each co-formulated sample was determined by measuring the absorbance from the liquid chromatogram traces at 215±8 nm and at 277±8 nm at each time point tested. points (0 hours, 24 hours, 7 days and 30 days post-formulation).

EC50 [3]: 0.741 nM
EC50 [4]: 2.4 nM
amyloid aggregates in TEM images [5]: no aggregates are observed
SMILES: CC[C@H](C)[C@H](NC(=O)[C@H](C)NC(=O)CNC(=O)[C@H](Cc1ccccc1)NC(=O)[C@H](CC(N)=O)NC(=O)[C@H](CCCCN)NC(=O)[C@H](CO)NC(=O)[C@H](CO)NC(=O)[C@H](Cc1c[nH]cn1)NC(=O)[C@@H](NC(=O)[C@H](CC(C)C)NC(=O)[C@H](Cc1ccccc1)NC(=O)[C@H](CC(N)=O)NC(=O)[C@H](C)NC(=O)[C@H](CC(C)C)NC(=O)[C@H](CCCNC(=N)N)NC(=O)[C@H](CCC(N)=O)NC(=O)[C@@H](NC(=O)[C@H](C)NC(=O)[C@@H]1CSSC[C@H](NC(=O)[C@@H](N)CCCCN)C(=O)N[C@@H](CC(N)=O)C(=O)N[C@@H]([C@@H](C)O)C(=O)N[C@@H](C)C(=O)N[C@@H]([C@@H](C)O)C(=O)N1)[C@@H](C)O)C(C)C)C(=O)N[C@@H](CC(C)C)C(=O)N[C@@H](CO)C(=O)N[C@@H](CO)C(=O)N[C@H](C(=O)N[C@@H](CC(N)=O)C(=O)N[C@H](C(=O)NCC(=O)N[C@@H](CO)C(=O)N[C@@H](CCCCN)C(=O)N[C@H](C(=O)N[C@@H](Cc1ccc(O)cc1)C(N)=O)[C@@H](C)O)C(C)C)[C@@H](C)O [SEQ ID NO: 7] (HELM PEPTIDE1{K.C.N.T.A.T.C.A.T.Q.R.L.A.N.F.L.V.H.S.S.K.N.F.G.A.I.L.S.S.T.N.V.G.S.K.T.Y.[am]}$PEPTIDE1,PEPTIDE1,2:R3-7:R3$$$V2.0)
solubility at neutral pH (absorbance of supernatant at 280 nm) [1]: more substantially soluble than wild-type hIAPP
amyloid formation monitored by thioflavin-T fluorescence [2]: none of the mutant hIAPP polypeptides forms amyloid
solubility co-formulated with Novolin-N (absorbance at 215 nm and 277 nm, LC-MS) [6]: significantly higher absorbance when compared to both wild-type hIAPP and paramlintide
